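In this assay, cells in 96-well plates receive the compound at five concentrations for 48 hours. Endpoints are linearly interpolated between the surrounding concentrations. At the GI50, growth is halved. The concentration for full growth arrest is given as TGI.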
Key:
Test in all cases: NCI-60 cell line screen, 48 h; in the data active = GI50 below about 0.43 µM; inactive = the rest
T-47D breast = test system: T-47D breast
HL-60(TB) leukemia = test system: HL-60(TB) leukemia
OVCAR-8 ovarian = test system: OVCAR-8 ovarian
CAKI-1 renal = test system: CAKI-1 renal
LOX IMVI melanoma = test system: LOX IMVI melanoma
MOLT-4 leukemia = test system: MOLT-4 leukemia
HCC-2998 colon = test system: HCC-2998 colon
M14 melanoma = test system: M14 melanoma
RXF 393 renal = test system: RXF 393 renal
SNB-19 CNS = test system: SNB-19 CNS
MDA-MB-435 = test system: MDA-MB-435
KM12 colon = test system: KM12 colon
RPMI-8226 leukemia = test system: RPMI-8226 leukemia
A549 NSCLC = test system: A549 NSCLC
MDA-MB-231 breast = test system: MDA-MB-231 breast
BT-549 breast = test system: BT-549 breast
K-562 leukemia = test system: K-562 leukemia
786-0 renal = test system: 786-0 renal
MALME-3M melanoma = test system: MALME-3M melanoma
U251 CNS = test system: U251 CNS
HOP-92 NSCLC = test system: HOP-92 NSCLC
COLO 205 colon = test system: COLO 205 colon
SK-MEL-5 melanoma = test system: SK-MEL-5 melanoma
SF-539 CNS = test system: SF-539 CNS
HOP-62 NSCLC = test system: HOP-62 NSCLC
SNB-75 CNS = test system: SNB-75 CNS
SW-620 colon = test system: SW-620 colon
ACHN renal = test system: ACHN renal
SK-MEL-2 melanoma = test system: SK-MEL-2 melanoma
HT29 colon = test system: HT29 colon
UACC-62 melanoma = test system: UACC-62 melanoma
PC-3 prostate = test system: PC-3 prostate
NCI-H460 lung = test system: NCI-H460 lung
HS 578T breast = test system: HS 578T breast
UO-31 renal = test system: UO-31 renal
NCI-H522 lung = test system: NCI-H522 lung
OVCAR-4 ovarian = test system: OVCAR-4 ovarian
NCI/ADR-RES ovarian = test system: NCI/ADR-RES ovarian
SK-OV-3 ovarian = test system: SK-OV-3 ovarian
SN12C renal = test system: SN12C renal
OVCAR-3 ovarian = test system: OVCAR-3 ovarian
UACC-257 melanoma = test system: UACC-257 melanoma
NCI-H226 lung = test system: NCI-H226 lung
IGROV1 ovarian = test system: IGROV1 ovarian
SK-MEL-28 melanoma = test system: SK-MEL-28 melanoma
SR leukemia = test system: SR leukemia
A498 renal = test system: A498 renal
MCF7 breast = test system: MCF7 breast
OVCAR-5 ovarian = test system: OVCAR-5 ovarian
SF-295 CNS = test system: SF-295 CNS
CCRF-CEM leukemia = test system: CCRF-CEM leukemia
DU-145 prostate = test system: DU-145 prostate
HCT-116 colon = test system: HCT-116 colon
SF-268 CNS = test system: SF-268 CNS
HCT-15 colon = test system: HCT-15 colon
TK-10 renal = test system: TK-10 renal
NCI-H23 lung = test system: NCI-H23 lung
EKVX NSCLC = test system: EKVX NSCLC

CC1(C)N=C(N)N=C(N)N1c1ccc(OCCCCNC(=O)c2ccc(S(=O)(=O)F)cc2)c(Cl)c1
> 100 µM: TGI (T-47D breast) | TGI (HL-60(TB) leukemia) | TGI (OVCAR-8 ovarian) | TGI (CAKI-1 renal) | TGI (LOX IMVI melanoma) | TGI (MOLT-4 leukemia) | TGI (HCC-2998 colon) | TGI (M14 melanoma) | TGI (RXF 393 renal) | TGI (SNB-19 CNS) | TGI (MDA-MB-435) | TGI (KM12 colon) | TGI (RPMI-8226 leukemia) | TGI (A549 NSCLC) | TGI (MDA-MB-231 breast) | TGI (BT-549 breast) | TGI (K-562 leukemia) | TGI (786-0 renal) | TGI (MALME-3M melanoma) | TGI (U251 CNS) | TGI (HOP-92 NSCLC) | TGI (COLO 205 colon) | TGI (SK-MEL-5 melanoma) | TGI (SF-539 CNS) | TGI (HOP-62 NSCLC) | TGI (SNB-75 CNS) | TGI (SW-620 colon) | TGI (ACHN renal) | TGI (SK-MEL-2 melanoma) | TGI (HT29 colon) | TGI (UACC-62 melanoma) | TGI (PC-3 prostate) | TGI (NCI-H460 lung) | TGI (HS 578T breast) | TGI (UO-31 renal) | TGI (NCI-H522 lung) | TGI (OVCAR-4 ovarian) | TGI (NCI/ADR-RES ovarian) | TGI (SK-OV-3 ovarian) | TGI (SN12C renal) | TGI (OVCAR-3 ovarian) | TGI (UACC-257 melanoma) | TGI (NCI-H226 lung) | TGI (IGROV1 ovarian) | TGI (SK-MEL-28 melanoma) | TGI (SR leukemia) | TGI (A498 renal) | TGI (MCF7 breast) | TGI (OVCAR-5 ovarian) | TGI (SF-295 CNS) | TGI (CCRF-CEM leukemia) | TGI (DU-145 prostate) | TGI (HCT-116 colon) | TGI (SF-268 CNS) | TGI (HCT-15 colon)
inactive: GI50 (T-47D breast) > 100 µM | GI50 (HL-60(TB) leukemia) 1.84 µM | GI50 (OVCAR-8 ovarian) 4.82 µM | GI50 (CAKI-1 renal) 43.8 µM | GI50 (LOX IMVI melanoma) 1.9 µM | GI50 (MOLT-4 leukemia) 21.3 µM | GI50 (HCC-2998 colon) 35 µM | GI50 (M14 melanoma) 8.89 µM | GI50 (RXF 393 renal) 8.99 µM | GI50 (SNB-19 CNS) 13.6 µM | GI50 (MDA-MB-435) 4.87 µM | GI50 (KM12 colon) 8.04 µM | GI50 (RPMI-8226 leukemia) 6.39 µM | GI50 (A549 NSCLC) 4.17 µM | GI50 (MDA-MB-231 breast) 66.2 µM | GI50 (BT-549 breast) > 100 µM | GI50 (K-562 leukemia) 0.562 µM | GI50 (786-0 renal) 5.72 µM | GI50 (MALME-3M melanoma) > 100 µM | GI50 (U251 CNS) 5.65 µM | GI50 (HOP-92 NSCLC) > 100 µM | GI50 (COLO 205 colon) 68.4 µM | GI50 (SK-MEL-5 melanoma) 5.19 µM | GI50 (SF-539 CNS) 7.11 µM | GI50 (HOP-62 NSCLC) 68.3 µM | GI50 (SNB-75 CNS) 16.5 µM | GI50 (SW-620 colon) 3.51 µM | GI50 (ACHN renal) 41.6 µM | GI50 (SK-MEL-2 melanoma) 77.2 µM | GI50 (HT29 colon) 4.19 µM | GI50 (UACC-62 melanoma) 4.27 µM | GI50 (PC-3 prostate) 0.743 µM | GI50 (NCI-H460 lung) 2.1 µM | GI50 (HS 578T breast) > 100 µM | GI50 (UO-31 renal) 48.8 µM | GI50 (NCI-H522 lung) 10.5 µM | GI50 (OVCAR-4 ovarian) 93.7 µM | GI50 (NCI/ADR-RES ovarian) > 100 µM | GI50 (SK-OV-3 ovarian) > 100 µM | GI50 (SN12C renal) 4.47 µM | GI50 (OVCAR-3 ovarian) 50.4 µM | GI50 (UACC-257 melanoma) 6.36 µM | GI50 (NCI-H226 lung) 76 µM | GI50 (IGROV1 ovarian) 4.78 µM | GI50 (SK-MEL-28 melanoma) 54.1 µM | GI50 (SR leukemia) 4.95 µM | GI50 (A498 renal) > 100 µM | GI50 (MCF7 breast) 3.9 µM | GI50 (OVCAR-5 ovarian) > 100 µM | GI50 (SF-295 CNS) 51.1 µM | GI50 (CCRF-CEM leukemia) 5.65 µM | GI50 (DU-145 prostate) 8.16 µM | GI50 (HCT-116 colon) 3.53 µM | GI50 (SF-268 CNS) 6.21 µM | GI50 (HCT-15 colon) 23.3 µM

CCCNc1cccc(-n2ncc3c(N/N=C/c4ccncc4)ncnc32)c1
> 19.4 µM: TGI (SNB-75 CNS)
> 25 µM: TGI (T-47D breast) | TGI (OVCAR-8 ovarian) | TGI (CAKI-1 renal) | TGI (MOLT-4 leukemia) | TGI (HCC-2998 colon) | TGI (M14 melanoma) | TGI (RXF 393 renal) | TGI (SNB-19 CNS) | TGI (TK-10 renal) | TGI (MDA-MB-435) | TGI (KM12 colon) | TGI (RPMI-8226 leukemia) | TGI (A549 NSCLC) | TGI (MDA-MB-231 breast) | TGI (BT-549 breast) | TGI (NCI-H23 lung) | TGI (K-562 leukemia) | TGI (EKVX NSCLC) | TGI (786-0 renal) | TGI (MALME-3M melanoma) | TGI (U251 CNS) | TGI (HOP-92 NSCLC) | TGI (COLO 205 colon) | TGI (SK-MEL-5 melanoma) | TGI (SF-539 CNS) | TGI (HOP-62 NSCLC) | TGI (SW-620 colon) | TGI (ACHN renal) | TGI (SK-MEL-2 melanoma) | TGI (HT29 colon) | TGI (UACC-62 melanoma) | TGI (PC-3 prostate) | TGI (NCI-H460 lung) | TGI (HS 578T breast) | TGI (NCI-H522 lung) | TGI (OVCAR-4 ovarian) | TGI (NCI/ADR-RES ovarian) | TGI (SK-OV-3 ovarian) | TGI (SN12C renal) | TGI (OVCAR-3 ovarian) | TGI (UACC-257 melanoma) | TGI (NCI-H226 lung) | TGI (SK-MEL-28 melanoma) | TGI (SR leukemia) | TGI (A498 renal) | TGI (MCF7 breast) | TGI (OVCAR-5 ovarian) | TGI (SF-295 CNS) | TGI (CCRF-CEM leukemia) | TGI (DU-145 prostate) | TGI (HCT-116 colon) | TGI (SF-268 CNS) | TGI (HCT-15 colon)
inactive: GI50 (T-47D breast) > 25 µM | GI50 (OVCAR-8 ovarian) 11.7 µM | GI50 (CAKI-1 renal) 1.1 µM | GI50 (MOLT-4 leukemia) > 25 µM | GI50 (HCC-2998 colon) > 25 µM | GI50 (M14 melanoma) 1.69 µM | GI50 (RXF 393 renal) 1.07 µM | GI50 (SNB-19 CNS) > 25 µM | GI50 (TK-10 renal) 2.37 µM | GI50 (MDA-MB-435) 0.757 µM | GI50 (KM12 colon) 1.77 µM | GI50 (RPMI-8226 leukemia) > 25 µM | GI50 (A549 NSCLC) > 7.61 µM | GI50 (MDA-MB-231 breast) > 25 µM | GI50 (BT-549 breast) > 8.4 µM | GI50 (NCI-H23 lung) > 25 µM | GI50 (K-562 leukemia) 1.12 µM | GI50 (EKVX NSCLC) > 25 µM | GI50 (786-0 renal) > 25 µM | GI50 (MALME-3M melanoma) > 7.75 µM | GI50 (U251 CNS) 17 µM | GI50 (HOP-92 NSCLC) 9.32 µM | GI50 (COLO 205 colon) > 25 µM | GI50 (SK-MEL-5 melanoma) 1.64 µM | GI50 (SF-539 CNS) > 8.45 µM | GI50 (HOP-62 NSCLC) 4.72 µM | GI50 (SNB-75 CNS) 0.934 µM | GI50 (SW-620 colon) > 6.13 µM | GI50 (ACHN renal) > 6.92 µM | GI50 (SK-MEL-2 melanoma) 1.49 µM | GI50 (HT29 colon) 14.9 µM | GI50 (UACC-62 melanoma) > 7.76 µM | GI50 (PC-3 prostate) > 25 µM | GI50 (NCI-H460 lung) 2.65 µM | GI50 (HS 578T breast) 1.1 µM | GI50 (NCI-H522 lung) 1.44 µM | GI50 (OVCAR-4 ovarian) > 9.88 µM | GI50 (NCI/ADR-RES ovarian) 1.93 µM | GI50 (SK-OV-3 ovarian) 6.92 µM | GI50 (SN12C renal) > 25 µM | GI50 (OVCAR-3 ovarian) 2.17 µM | GI50 (UACC-257 melanoma) > 25 µM | GI50 (NCI-H226 lung) > 16.5 µM | GI50 (SK-MEL-28 melanoma) > 10 µM | GI50 (SR leukemia) 1.18 µM | GI50 (A498 renal) 1.12 µM | GI50 (MCF7 breast) > 5.61 µM | GI50 (OVCAR-5 ovarian) > 25 µM | GI50 (SF-295 CNS) 3.58 µM | GI50 (CCRF-CEM leukemia) > 25 µM | GI50 (DU-145 prostate) > 25 µM | GI50 (HCT-116 colon) 1.82 µM | GI50 (SF-268 CNS) 8.24 µM | GI50 (HCT-15 colon) 1.68 µM

Reference: PubChem BioAssay (NCI)
